Assays:
cathepsin L [1] = target: T1, cathepsin L (Homo sapiens, UniProt P07711); experiment: Cathepsin L inhibition, Z-FR-AMC fluorogenic assay (IC50); type: biochemical; details: Z-FR-AMC 5 µM, pH 5.5, 37 °C
Method: (§1) Cathepsin L was assayed in a reaction buffer of 100 mM sodium acetate, containing 100 mM NaCl, 5 mM EDTA and 20% glycerol at pH 5.5. Cathepsin B was assayed in the same buffer supplemented with 0.01% Triton X-100. The enzymes were pre-incubated in the presence of 3 mM DTT for 5 min at 37 °C in a 1 mL final volume with constant stirring. The enzyme activities were monitored using the fluorogenic probe Z-FR-AMC (50 µM and 5 µM for cathepsin B and L, respectively), and the fluorescence was monitored by spectrofluorometry using the fluorometer RF6000 (Shimadzu, Tokyo, Japan) set to λEx = 360 nm and λEm = 480 nm. […] The data were analyzed by Grafit 5.0.13 software using Equation (1). (1) y=100%/1+(x/IC50)^S

[2] = test system: PARP-1 cleavage in Jurkat cells; experiment: Cleaved PARP by flow cytometry; type: cell-based, human; details: 12 h of treatment, EC50 of the compounds
Method: (§2) Jurkat and CCRF-CEM cells (2 × 10^5 cells/mL) were treated with C9 and C21 compounds for 12 h. Then, the cells were centrifuged, washed, fixed with 2% paraformaldehyde in PBS for 30 min and permeabilized with 0.01% saponin in PBS for 15 min at room temperature. Afterwards, the cells were incubated for 1 h at 37 °C with anti-cleaved-caspase 3-FITC monoclonal antibodies (Cell Signaling, Danvers, MA, USA) or mouse anti-cleaved PARP-PE/CF594 (Asp^214) antibodies (BD Biosciences, San Jose CA, USA). After incubation, the fluorescence was analyzed using an Accuri C6 flow cytometer (BD Biosciences, San Jose, CA, USA). A total of 10,000 events were acquired per sample.

[3] = test system: PARP-1 cleavage in CCRF-CEM cells; experiment: Cleaved PARP by flow cytometry; type: cell-based, human; details: 12 h of treatment, EC50 of the compounds
Method: as §2

cathepsin L [4] = target: T1, cathepsin L; experiment: Cathepsin L inhibition kinetics and mechanism; type: biochemical; details: Cat L; for Mec. (mechanism of inhibition): SLNC = simple linear non-competitive, SLC = simple linear competitive
Method: (§3) For every kinetic measurement, the compounds were pre-incubated with each enzyme for 10 min before adding the substrate. All kinetic assays were carried out in duplicate. Inhibition constants were determined using different equations, depending on the inhibition mechanism. The assumed KM values of cathepsin B and cathepsin L for Z-FR-AMC were 23.4 µM and 2 µM, respectively, as previously described. The data of the activity rate and substrate concentration generated rectangular hyperbolic profiles that were linearized using the Lineweaver–Burk/double reciprocal plot. The replot profiles of the slope vs inhibitor and intercept vs inhibitor provided the Ki and αKi parameters, respectively.

CCRF-CEM cells = experiment: Cytochrome c release, confocal colocalization; type: cell-based, human; details: CCRF-CEM lineage after treatment; control cells 25–35%
Method: The release of cytochrome c from the mitochondria was estimated by using double-labeled confocal cell imaging with MitoTracker Green (Invitrogen, Waltham, MA, USA) and a cytochrome c antibody. Jurkat and CCRF-CEM cells (2 × 10^5 cells/mL) were incubated with C9 and C21 compounds for 12 h. Then, cells were incubated with 100 nM MitoTracker Green (Invitrogen, Waltham, MA, USA) for 30 min at 37 °C. Following this, cells were washed with PBS, fixed with 2% paraformaldehyde in PBS for 30 min and permeabilized with 0.01% saponin in PBS for 15 min. Then, the cells were incubated with a monoclonal rabbit antibody against human cytochrome c at 1:100 dilutions (0.5 μg/mL, Cell Signaling, Danvers, MA, USA) for 2 h at room temperature. […] Alexa Fluor 647 was excited using a HeNe laser (λEx = 633 nm) and its emissions were detected at 650–700 nm. MitoTracker Green was excited using an argon laser (λEx = 488 nm) and its emissions were detected at 500–550 nm. DAPI was excited with a diode laser (λEx = 405 nm) and its emissions were detected at […]. […]
The quantitative evaluation of colocalization was performed by using the percentage of colocalized between channels, which correspond to the pixels with red fluorescence and green or blue fluorescence. […] The colocalization coefficient was calculated using the Imaris software.

cathepsin B [5] = target: T2, cathepsin B (Homo sapiens, UniProt P07858); experiment: Cathepsin B inhibition kinetics and mechanism; type: biochemical; details: Cat B; for Mec. (mechanism of inhibition): SLNC = simple linear non-competitive, SLC = simple linear competitive
Method: as §3

cathepsin B [6] = target: T2, cathepsin B; experiment: Cathepsin B inhibition, Z-FR-AMC fluorogenic assay (IC50); type: biochemical; details: Z-FR-AMC 50 µM, pH 5.5, 37 °C
Method: as §1

[7] = test system: CCRF-CEM (acute lymphoblastic leukemia); experiment: Annexin V-FITC/PI cytotoxicity, concentration-response; type: cell-based; details: Homo sapiens, CCRF-CEM cells, 24 h
Method: (§4) Figure 2 Effects of the alkyltriazole compounds C9 and C21 on the viability of different myeloblastic and lymphoblastic leukemia lineages. Lineages cells at 2 × 10^5 cells/mL were used. Cells were exposed to concentrations ranging from 0 to 150 µM for 24 h, and cell viability was assessed by annexin V-FITC/PI staining and flow cytometric analysis. (A) Chemical structure of C9, with a hydroxyl group and an iodine atom as substituents.
(§5) Human leukemia cell lines (Kasumi-1, K-562, ARH-77, Jurkat and CCRF-CEM, see Table S2) were purchased from American Type Culture Collection-ATCC (Manassas, VA, USA). The cells were maintained in RPMI 1640 (Sigma-Aldrich, Burlington, MA, USA) culture medium, supplemented with 10% fetal bovine serum, 100 U/mL penicillin (Sigma-Aldrich, Burlington, MA, USA) and 100 µg/mL streptomycin (Sigma-Aldrich, Burlington, MA, USA). Cells were cultured in a humidified atmosphere at 37 °C and 5% CO2.
(§6) Leukemia or PBMC cells (2 × 10^5 cells/mL) were incubated for 24 h in both the absence and presence of compounds. PBMCs were also treated with vinblastine (Sigma-Aldrich, Burlington, MA, USA) for 24 h as the positive control. Then, the cells were centrifuged and resuspended in binding buffer (0.01 M HEPES, pH 7.4, containing 0.14 M NaCl, and 2.5 mM CaCl2) and incubated at room temperature with annexin V-FITC (BD Biosciences, San Jose, CA, USA) and 5 µg/mL PI (Sigma-Aldrich, Burlington, MA, USA) for 20 min. Sample analysis was performed using an Accuri C6 flow cytometer (BD Biosciences, San Jose, CA, USA) with the acquisition value of 10,000 events.

[8] = test system: ARH-77 (plasma cell leukemia); experiment: as above; type: cell-based; details: Homo sapiens, ARH-77 cells, 24 h
Method: as §4, §5, §6

[9] = test system: K562 (chronic myeloblastic leukemia); experiment: as above; type: cell-based; details: Homo sapiens, K562 cells, 24 h
Method: as §4, §5, §6

[10] = test system: Kasumi-1 (acute myeloblastic leukemia); experiment: as above; type: cell-based; details: Homo sapiens, Kasumi cells, 24 h
Method: as §4, §5, §6

[11] = test system: Jurkat (acute lymphoblastic leukemia); experiment: as above; type: cell-based; details: Homo sapiens, Jurkat cells, 24 h
Method: as §4, §5, §6

[12] = test system: cleaved caspase-3 in CCRF-CEM cells; experiment: Cleaved caspase-3 by flow cytometry; type: cell-based, human; details: 12 h of treatment, EC50 of the compounds
Method: as §2

[13] = test system: cleaved caspase-3 in Jurkat cells; experiment: Cleaved caspase-3 by flow cytometry; type: cell-based, human; details: 12 h of treatment, EC50 of the compounds
Method: as §2

PBMCs = experiment: Annexin V-FITC/PI cytotoxicity on healthy control cells; type: cell-based, human; details: for cytotoxicity to PBMCs compared with vinblastine: 24 h of exposure at different concentrations; for sensitivity of PBMCs compared with the tumor lineages: healthy control cells, 24 h
Description: Blood was collected using EDTA Vacuum Blood Collection Tubes. Peripheral blood mononuclear cells were isolated from three normal healthy individuals after they provided informed consent and after prior approval by the local Ethics Committee of University of Mogi das Cruzes (ethical appreciation number 72986617.3.0000.5497, and approval number 2.236.397). The fraction of mononuclear cells was separated from the blood by centrifugation with Ficoll-Histopaque-1077 (density 1.077 g/mL, Sigma-Aldrich, Burlington, MA, USA) at 400× g for 30 min. Mononuclear cells were maintained in 100 U/mL penicillin and […] streptomycin in an incubator with a humidified atmosphere at 37 °C and 5% CO2.
as §6, with “events. […]” for “events.”
Figure S3. Concentration-response curve of cytotoxicity of compounds C9, C21 and vinblastine on PBMCs. PBMCs cells were cultured (2x10^5 cells/mL) on 96-well microplates. The cells were treated with compounds C9 ([…]) and C21 (≤), and vinblastine ([…]) (Sigma-Aldrich, Germany) for 24 h. After, the cells were labeled with Annexin V-FITC and 5 μg/mL PI. The results were expressed as percent-age. The data are the mean ± SEM of 3 experiments performed in duplicate.

[14] = test system: Jurkat and CCRF-CEM lineages; experiment: Annexin V-FITC/PI cytotoxicity, EC50 span over ALL lineages (discussion); type: cell-based; details: Homo sapiens
Method: as §4, §5
Leukemia or PBMC cells (2 × 10^5 cells/mL) were incubated for 24 h in both the absence and presence of compounds. PBMCs were also treated with vinblastine (Sigma-Aldrich, Burlington, MA, USA) for 24 h as the positive control. […]

[15] = test system: T-cell lymphomas lineages; set-up: method as in PMID 24225136; details: cited from earlier work

T1 sequence (P07711 114-333): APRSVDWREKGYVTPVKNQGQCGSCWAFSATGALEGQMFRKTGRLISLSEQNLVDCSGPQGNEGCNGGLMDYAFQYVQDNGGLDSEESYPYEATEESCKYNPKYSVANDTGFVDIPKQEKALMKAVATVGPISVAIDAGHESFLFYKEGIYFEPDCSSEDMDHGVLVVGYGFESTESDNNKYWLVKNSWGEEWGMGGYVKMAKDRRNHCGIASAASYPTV

Row | IC50 (cathepsin L [1]) | Ki (cathepsin L [4]) | αKi (cathepsin L [4]) | Ki (cathepsin B [5]) | IC50 (cathepsin B [6]) | Structure (SMILES) | PARP-1 cleavage [2] | PARP-1 cleavage [3] | colocalization coefficient between the green and red channel (CCRF-CEM cells) | EC50 [7] | EC50 [8] | EC50 [9] | EC50 [10] | EC50 [11] | cleaved caspase-3 [12] | cleaved caspase-3 [13] | cytotoxicity to PBMCs compared with vinblastine (PBMCs) | sensitivity of PBMCs compared with the tumor lineages (PBMCs) | also measured
1 | 1.6 ± 0.1 µM | 9.72 ± 1.23 µM | 10.47 ± 1.17 µM | 27.4 ± 1.2 µM | 3.9 ± 0.2 µM | CC(=O)OCCCc1cn(CCCCCCCCCCCCOS(C)(=O)=O)nn1 [Compound 21] | observed | did not occur | 30–40% | 60 ± 2 µM | 96 ± 1 µM | > 140 µM | > 140 µM | 77 ± 1.5 µM | less intense | increase | less cytotoxic than vinblastine | significantly less sensitive | Mec. (mechanism of inhibition) (cathepsin L [4]; listed as C21): simple linear noncompetitive inhibition and SLNC; α (cathepsin L [4]; listed as C21): 1; α (cathepsin B [5]): 1.6; αKi (cathepsin B [5]): 43.9 ± 1.7 µM; Mec. (mechanism of inhibition) (cathepsin B [5]; listed as C21): simple linear noncompetitive inhibition and SLNC
2 | 1.3 ± 0.1 µM | 3.56 ± 0.26 µM | 3.66 ± 0.07 µM | 15.3 ± 0.6 µM | 3.5 ± 0.2 µM | OCCCc1cn(CCCCCCCCCCCCI)nn1 [Compound 9] | observed | did not occur | 30–40% | 40 ± 1.2 µM | 71 ± 0.8 µM | > 140 µM | > 140 µM | 63 ± 1 µM | less intense | increase | less cytotoxic than vinblastine | significantly less sensitive | EC50 ([14]; in Jurkat and CCRF-CEM lineages): 40 to 70 µM; Mec. (mechanism of inhibition) (cathepsin L [4]; listed as C9): simple linear noncompetitive inhibition and SLNC; α (cathepsin L [4]; listed as C9): 1; Mec. (mechanism of inhibition) (cathepsin B [5]; listed as C9): simple linear competitive inhibition and SLC
3 |  |  |  |  |  | CCCCCCCC/C=C\CCCCCCCCCCCCOP(=O)([O-])OCC[N+](C)(C)C [erufosine] |  |  |  |  |  |  |  |  |  |  |  |  | EC50 [15]: ~60 µM
4 | 10.5 ± 0.2 µM |  |  |  | 7.5 ± 0.1 µM | CCCCCCCCCCCCCCCCOP(=O)([O-])OCC[N+](C)(C)C [Compound 1, hexadecyl 2-(trimethylazaniumyl)ethyl phosphate, reference compound] |  |  |  | 120 ± 3 µM |  |  |  | 186 ± 12 µM |  |  |  |  | EC50 ([14]; against the studied lines): 120 to 200 µM
